# [ ]: non-standard residue; d: D form. Cha = N[C@@H](CC1CCCCC1)C(=O)O; Mpa = O=C(O)CCS
# Columns and labels:
# C57BL/6 mice [1] = assay: Delayed type hypersensitivity, contact sensitivity to oxazolone (ear swelling); format: in vivo, mouse; settings: WT mice, reagent at second exposure to oxazolone
# Description: C57BL/6 mice were topically sensitised with oxazolone on the shaved abdomen on day 0. Treatment with either saline, PTL060 (10 mg/g), equimolar PTL0GC-1 or equimolar *3-MP was given on day 3 and day 5, the last immediately prior to re-challenge with oxazolone onto the right ear. The left ear was treated with vehicle alone. On day 6, the difference in swelling of the right and left ears was measured and is presented as D mean ear thickness.
# This example uses a model of contact hypersensitivity. Here, mice are challenged on the abdomen with the contact sensitizer oxazolone, before a re-challenge […] on both sides of the ear with oxazolone (on the right) or vehicle alone (on the left).
# Swelling of the ears, measured with a micrometer, reflects the influx of monocytes/macrophages and T cells in a typical delayed-type hypersensitivity (DTH) response.
# FIG. 19: Model of DTH involving contact sensitivity to oxazolone. WT mice were administered a PAR-1 agonist or antagonist at the point of second exposure to oxazolone, before ear thickness was assessed 24 hours later, and mice sacrificed for immunohistological analysis of cross sections of the affected ears, to determine the proportional area occupied by CD68+ cells (macrophages). *p<0.05. **p<0.01. ***p<0.001
# [2] = test system: Mouse primary smooth muscle cells (SMCs) or endothelial cells (EC); assay: In vitro secretion of chemokines by SMC/EC after PAR reagents; format: cell-based; design: secretion of MIF (and CCL-2) compared with PAR-1 agonists / secretion of CX3CL1 (and CCL5) compared with a PAR-1 agonist: dose or concentration left out as unconfirmed
# Description: (§1) In more detail, Mechanistic insights—monocyte recruitment: In vitro secretion of chemokines by PAR-1 and PAR-2 agonists. Mouse primary smooth muscle cells (SMCs) or endothelial cells (EC) at a density of 1×10^6 cells/well of a 24-well plate were serum-starved for 24 hours before addition of FLLRN (PAR-1 […], 10 μM), 2-Furoyl-LIGRLO-Amide (PAR-2 agonist, 10 μM) or 3-MP (3-mercaptopropionyl-F-Cha-Cha-RKPNDK 10 μM) for 12 hours, following which thrombin (10 nM) was added for 1 hour, before a final 48 hours incubation in 2% FCS DMEM. Supernatants of stimulated cells were collected to measure MIF, CCL2, CCL5 and CX3CL1 using ELISA, following manufacturer's protocol.
# (§2) FIG. 22: Secretion of MIF and CX3CL1 by SMC after 12 hour stimulation with either a pure PAR-1 agonist, pure PAR-2 agonist, or by 3-mercaptoproprionyl(MP)—F-Cha-Cha-RKPNDK amide, followed by 48 hour culture period. All used at […]. Patterns of secretion of CCL-2 resemble those of MIF, whereas secretion of CCL5 resembles CX3CL1.
# murine SMC = assay: Thrombin-induced secretion of chemokines by SMC with PAR reagents; format: cell-based, mouse; design: thrombin-mediated MIF (and CCL-2) secretion / thrombin-mediated CX3CL1 secretion: dose or concentration left out as unconfirmed
# Description: as §1, with “[…] ,” for “following which thrombin (10 nM) was added for 1 hour,”
# In more detail, mechanistic insights—monocyte recruitment: In vitro secretion of chemokines by thrombin—differential impact of PAR-1 antagonist and 3-mercaptopropionyl-F-Cha-Cha-RKPNDK. Secretion of chemokines from murine SMC after stimulation with thrombin alone (nil), or in presence of a pure PAR-1 antagonist, or 3-MP*.
# as §2
# Chemokines measured 48 hours later. Secretion of CCL-2 resembles that of MIF, whereas secretion of CCL5 resembles CX3CL1.
# macrophages = assay: Sensitivity of macrophages to IFNγ (iNOS expression, flow cytometry); format: cell-based; settings: 100 microM
# Description: In more detail, mechanistic insights: direct effect on monocyte/macrophage phenotype. Sensitivity of macrophages to IFNγ, as assessed by the proportion that express iNOS after stimulation.
# The enhanced sensitivity to IFNγ induced by thrombin is inhibited by a PAR-1 antagonist—this is via expression of ABCA1 and membrane lipid rafts. […] BMM purified cells cultured in MCSF for 5 days. Cells then removed for 24 hours and incubated with thrombin (50 units) (if an antagonist or 3-mercaptopropionyl-F-Cha-Cha-RKPNDK was used cells were incubated for 2 hours with the antagonist or 3MP prior to thrombin stimulation to allow time for antagonist to dock with PAR). Cells then had media replaced with thrombin+ PAR reagent and IFN gamma at the dose described. For the PAR2 experiments it was at this point that PAR2 was added. Cells were then incubated for 24 further hours and then analysed by flow cytometry for iNOS. Pure PAR-1 antagonist (αagonist)=FLLRN; Pure PAR-2 agonist=2-Furoyl-LIGRLO-amide; 3-MP=3-mercaptopropionyl-F-Cha-Cha-RKPNDK; All used at 100 microM. Thrombin used at 50 iu
# ABCA1 = ABCA1 expression of macrophages incubated with thrombin; format: cell-based; settings: titrated in during incubation of macrophages with thrombin
# Source text: In more detail, mechanistic insights: direct effect on monocyte/macrophage phenotype through SOCS3. To explain how 3-MP inhibits the enhanced sensitivity to IFNγ induced by thrombin.
# SOCS3 = SOCS3 expression of macrophages; format: cell-based
# Source text: This is a well-described inhibitor of IFNγ signalling. In the right graph, the thrombin-induced sensitivity to IFNγ, as assessed by change in iNOS expression, is shown.
# C57BL/6 mice [3] = assay: Delayed type hypersensitivity, contact sensitivity to oxazolone (ear swelling); format: in vivo, mouse; settings: 10 microM/g
# PAR1 = target: T1, PAR1 (Homo sapiens, UniProt P25116); settings: Kawabata et al 1999, page 365; cited from earlier work
# T1 sequence (P25116 22-425): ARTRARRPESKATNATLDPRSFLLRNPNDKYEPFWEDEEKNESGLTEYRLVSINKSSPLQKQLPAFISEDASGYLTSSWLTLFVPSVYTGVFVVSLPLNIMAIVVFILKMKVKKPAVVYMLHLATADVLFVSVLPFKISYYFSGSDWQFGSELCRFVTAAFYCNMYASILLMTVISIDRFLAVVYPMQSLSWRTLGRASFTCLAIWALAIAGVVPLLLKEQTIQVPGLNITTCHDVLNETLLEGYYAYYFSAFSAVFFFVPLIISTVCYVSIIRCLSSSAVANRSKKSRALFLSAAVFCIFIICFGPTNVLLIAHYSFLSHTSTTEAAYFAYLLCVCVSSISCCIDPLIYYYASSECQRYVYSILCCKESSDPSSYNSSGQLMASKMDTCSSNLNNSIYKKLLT
# PAR2 = target: T2, PAR2 (Homo sapiens, UniProt P55085); settings: Kawabata et al 1999, page 365; cited from earlier work
# T2 sequence (P55085 26-397): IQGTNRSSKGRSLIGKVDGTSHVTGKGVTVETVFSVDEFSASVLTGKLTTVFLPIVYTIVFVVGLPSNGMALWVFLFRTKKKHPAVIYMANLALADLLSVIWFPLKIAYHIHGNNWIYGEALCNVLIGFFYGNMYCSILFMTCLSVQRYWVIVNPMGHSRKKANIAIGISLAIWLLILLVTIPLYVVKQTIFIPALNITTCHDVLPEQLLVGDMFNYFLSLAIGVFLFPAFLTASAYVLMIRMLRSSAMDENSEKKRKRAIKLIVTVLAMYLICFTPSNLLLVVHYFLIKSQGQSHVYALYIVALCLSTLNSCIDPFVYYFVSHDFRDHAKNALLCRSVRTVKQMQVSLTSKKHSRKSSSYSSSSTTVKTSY
# [4] = SMC, 12 hour stimulation, 48 hour culture
substance,measurement,setting,value
"3-mercaptopropionyl-Phe-Cha-Cha-Arg-Lys-Pro-Asn-Asp-Lys-NH2 ([Mpa]F[Cha][Cha]RKPNDK-NH2; SMILES N=C(N)NCCC[C@H](NC(=O)[C@H](CC1CCCCC1)NC(=O)[C@H](CC1CCCCC1)NC(=O)[C@H](Cc1ccccc1)NC(=O)CCS)C(=O)N[C@@H](CCCCN)C(=O)N1CCC[C@H]1C(=O)N[C@@H](CC(N)=O)C(=O)N[C@@H](CC(=O)O)C(=O)N[C@@H](CCCCN)C(N)=O) [3-MP, parental untailed compound of PTL032 and PTL0GC-1]",infiltration by CD68+ cells compared with both reagents together,C57BL/6 mice [1],inhibits CD68 infiltration better than when both reagents are administered together
same,ear swelling,C57BL/6 mice [1]; ear thickness 24 hours later,inhibits ear swelling and infiltration by CD68+ cells better than when either a pure PAR-1 antagonist or PAR-2 agonist are administered separately
same,behaviour in chemokine secretion assay,"[2]; 10 μM, 12 hours, MIF, CCL2, CCL5, CX3CL1 by ELISA",behaves as a pure PAR-2 agonist
same,secretion of CX3CL1 (and CCL5) compared with a PAR-1 agonist,[2]; [4],stimulated better
same,secretion of MIF (and CCL-2) compared with PAR-1 agonists,[2]; [4],less so
same,thrombin-mediated CX3CL1 secretion,"murine SMC; SMC, 12 hour",maintained
same,thrombin-mediated MIF (and CCL-2) secretion,"murine SMC; SMC, 12 hour",inhibited equally
same,thrombin-induced secretion of CX3CL1 and CCL5 reduced by,"murine SMC; murine SMC, 10 μM, thrombin 10 nM",0-10%
same,background response of control macrophages to IFNγ,macrophages,inhibits the background response of control macrophages to IFNγ
same,enhanced sensitivity of macrophages to IFNγ induced by thrombin (iNOS),macrophages; thrombin 50 iu,more potent than a pure PAR-1 antagonist
same,thrombin-induced ABCA1 expression,ABCA1,inhibits thrombin-induced ABCA1 expression
same,SOCS3 expression,SOCS3,induces SOCS3 expression
same,monocyte recruitment and phenotype in DTH,C57BL/6 mice [3],reduced monocyte recruitment with switched phenotype
same,activity at PAR1,PAR1,antagonist
same,activity at PAR2,PAR2,agonist

# From patent US20230167155A1, “COMPOSITIONS AND METHODS” (KING'S COLLEGE LONDON, priority 2020, published 2023)
